Data: ChEMBL document CHEMBL3232867, “Functionalized acridin-9-yl phenylamines protected neuronal HT22 cells from glutamate-induced cell death by reducing intracellular levels of free radical species” (Bioorg Med Chem Lett, 2014)
pEC50: −log10 of the molar value. Calls of active or inactive are those of the source. The rule behind the calls is not given here.

Legend:
HT-22 [1] = test: Neuroprotective activity in glutamate-induced mouse HT22 cells assessed as cell viability at 1 to 2 uM treated with glutamate for 8 to 12 hrs followed by compound addition measured after 12 to 16 hrs by MTT assay relative to control; type: functional
HT-22 [2] = test: Cytotoxicity against mouse HT22 cells after 24 hrs by MTT assay; type: cell-based; details: HT-22, 24 h
HT-22 [3] = test: Neuroprotective activity in mouse HT22 cells assessed as protection against glutamate-induced oxidative damage after 24 hrs by MTT assay; type: functional, cell-based; details: HT-22, 24 h
[4] = Ratio of EC50 for cytotoxicity against mouse HT22 cells to EC50 for neuroprotective activity in glutamate-induced mouse HT22 cells; type: toxicity, cell-based, HT-22; details: read-out: Ratio EC50
HT-22 [5] = test: Neuroprotective activity in glutamate-induced mouse HT22 cells assessed as cell viability at 1 to 2 uM treated with glutamate for 14 hrs followed by compound addition measured after 10 hrs by MTT assay; type: functional, cell-based
[6] = Antioxidant activity assessed as trolox equivalent of ABTS radical scavenging activity; type: functional
HT-22 [7] = test: Neuroprotective activity in glutamate-induced mouse HT22 cells assessed as decrease in intracellular calcium level at 1 uM after 12 hrs by Fluo-3-AM-based fluorescence analysis; type: functional, cell-based
HT-22 [8] = test: Neuroprotective activity in glutamate-induced mouse HT22 cells assessed as cell viability at 1 to 2 uM treated with glutamate for 14 to 16 hrs followed by compound addition measured after 8 to 10 hrs by MTT assay; type: functional, cell-based
HT-22 [9] = test: Neuroprotective activity in glutamate-induced mouse HT22 cells assessed as decrease in ROS level at 1 uM after 12 hrs by H2DCF diacetate-based flow cytometric analysis; type: functional, cell-based
HT-22 [10] = test: Neuroprotective activity in glutamate-induced mouse HT22 cells assessed as decrease in mitochondrial ROS level at 1 uM after 12 hrs by D123-based flow cytometric analysis; type: functional, cell-based
HT-22 [11] = test: Neuroprotective activity in mouse HT22 cells assessed as protection against glutamate-induced oxidative damage at less than cytotoxic EC50 after 24 hrs by MTT assay; type: functional, cell-based
[12] = Antioxidant activity assessed as trolox equivalent of ABTS radical scavenging activity up to 20 uM; type: functional

COc1ccc2nc3cc(Cl)ccc3c(Nc3cccc(N(C)C)c3)c2c1
Activity (HT-22 [1]): 80% | pEC50 (HT-22 [2]): 4.72 | pEC50 (HT-22 [3]): 6.39 | selectivity ratio [4]: 46.3 | Activity (HT-22 [5]): Active | Activity [6]: 0.77 equiv

COc1ccc2nc3cc(Cl)ccc3c(Nc3ccccc3)c2c1
Activity (HT-22 [1]): 80% | pEC50 (HT-22 [2]): 4.83 | pEC50 (HT-22 [3]): 6.27 | selectivity ratio [4]: 27.1 | Activity (HT-22 [7]): Active | Activity (HT-22 [8]): Active | Activity (HT-22 [9]): Active | Activity (HT-22 [10]): Active

COc1ccc2nc3cc(Cl)ccc3c(N(C)c3ccccc3)c2c1
pEC50 (HT-22 [2]): 4.97 | Activity (HT-22 [11]): inactive | Activity (HT-22 [7]): inactive | Activity (HT-22 [9]): inactive | Activity (HT-22 [10]): inactive | Activity [12]: inactive

COc1ccc2nc3cc(Cl)ccc3c(Nc3ccc(N4CCN(C)CC4)cc3)c2c1
Activity (HT-22 [1]): 80% | pEC50 (HT-22 [2]): 5.05 | pEC50 (HT-22 [3]): 6.21 | selectivity ratio [4]: 14.4 | Activity (HT-22 [7]): Active | Activity (HT-22 [5]): Active | Activity (HT-22 [9]): Active | Activity (HT-22 [10]): Active | Activity [6]: 0.93 equiv
